This assay relates to HepG2 cells. Nature of the assay: MTS assay for cell viability / cytotoxicity in HepG2 cells. It counts as cell-based. The following applies: Homo sapiens; HepG2 cells after 48 h, without thermal activation; read-out: IC50 μg PTX/ml. As to the method: HepG2 liver cancer cell line and J774 murine macrophage cells (provided by Prof. Colby Shad Thaxton, Department of Urology, Feinberg School of Medicine, Northwestern University) were grown in RPMI-1640 medium containing 10% FBS and penicillin/streptomycin (100 units/mL and 100 μg/mL, respectively). The cells were cultured at 37° C. with 5% CO2 atmosphere in T75 flasks.
The biocompatibility of the MLCCs and cytotoxicity was tested using MTS (3-(4,5-dimethylthiazol-2-yl)-5-(3-carboxymethoxyphenyl)-2-(4-sulfophenyl)-2H-tetrazolium) assay. Briefly, J774 and HepG2 cells were plated at 1×10^5 cells per well in 24-well plate with 70-80% of confluency. […] To compare the effect of drug loaded MLCCs with native drug, Cells were also treated with different concentration of native drug (similar to amount of drug entrapped within the MLCCs as calculated from measurement via HPLC). […] MTS assay was used to quantify the cell viability according to the protocol provided by the manufacture (CellTiter 96 Aqueous One Solution Cell Proliferation Assay; Promega). The optical densities were recorded at 490 nm and 700 nm using BioTek Synergy™ 4 Hybrid Microplate Reader. The background absorbance at 700 nm was subtracted from absorbance at 490 nm. […] The IC50 values were calculated by nonlinear curve fit using dose response-inhibition equation with Graphpad Prism 5.0. […]
Background: Tetrazolium dyes change colour on reduction, which living cells bring about.

SMILES strings stand for the structures.

Turning to `CC(=O)O[C@H]1C(=O)[C@@]2(C)[C@H]([C@H](OC(=O)c3ccccc3)[C@]3(O)C[C@H](OC(=O)[C@H](O)[C@@H](NC(=O)c4ccccc4)c4ccccc4)C(C)=C1C3(C)C)[C@]1(OC(C)=O)CO[C@@H]1C[C@@H]2O` [PTX, paclitaxel], the IC50 amounted to 0.63 µg/mL.

Source of the values: US11510872B2, “Nanoparticle-lipid composite carriers and uses thereof” (Northwestern University, priority 2017, dated 2022).
